Experiments:
human SGBS adipocytes = assay: 2-deoxy-3H-glucose uptake in human SGBS adipocytes; assay type: cell-based; details: doses ranging from 10 nM to 200 nM
Description: (§1) Mouse and human pre-adipocytes culture and differentiation. Inguinal fat pads from 4-8 week old C57BL/6J male and female mice were dissected and mechanically digested for 10 min using spring scissors. Digested tissues were incubated in WAT isolation buffer (10 ml PBS, 2.4 U/ml dispase II (#04942078001, Roche), 10 mg/ml collagenase D (#11088858001, Roche) at 37° C. for 45 min. 20 mL growth media was added and the tissue suspension was filtered through a 100-μm cell strainer and centrifuged at 600×g for 5 min. The cell pellets were resuspended in 20 mL growth media, filtered through a 40-μm cell strainer, centrifuged at 600×g for 5 min, resuspended in 10 mL growth media, and plated in 10-cm collagen-coated dishes. The cells were cultured in growth media (DMEM/F-12 Glutamax, Thermo Fisher Scientific #10565018) supplemented with 10% fetal bovine serum. Two days post-confluency, differentiation was induced with growth media containing 1 μM rosiglitazone, 0.5 mM isobutylmethylxanthine, 1 μM dexamethasone, 5 μg/mL insulin. After two days, cells were re-fed with growth media containing 1 μM rosiglitazone and 5 μg/mL insulin. Cells were fully differentiated after 6-8 days. For ISM1 knockdown or overexpression in primary adipocytes using adenovirus, 500 μL crude virus was mixed with 500 μL fresh growth media containing 1 μM rosiglitazone and 5 μg/mL insulin was added to each well at day 2 of differentiation. At day 4, virus-containing media was removed and 500 μL fresh growth media without stimulators was added to each well. SGBS cells were differentiated as described previously (Fischer-Posovszky et al., 2008; Wabitsch et al., 2001). Briefly, cells were cultured in growth media DMEM/F-12 Glutamax, supplemented with 10% fetal bovine serum, 33 uM biotin, and 17 uM pantothenate. Two days post confluency, differentiation was induced with serum-free DMEM/F12 media containing 33 uM biotin, 17 uM pantothenate, 0.01 mg/ml transferrin, 20 nM insulin, 100 nM cortisol, 0.2 nM triiodothyronine, 25 nM dexamethasone, 0.25 mM isobutyl methylxanthine, and 2 μM rosiglitazone. After four days, cells were re-fed with growth media containing 0.01 mg/ml transferrin 20 nM insulin, 100 nM cortisol, 0.2 nM triiodothyronine. Cells were fully differentiated after day 8-10.
(§2) Glucose uptake. Glucose uptake was performed as previously described (You et al., 2017). Briefly, 2-Deoxy-d-[2,6-3H]-glucose was purchased from PerkinElmer NEN radiochemicals. Fully differentiated adipocytes were washed with KRH buffer and starved in 0.5% BSA in KRH buffer for 4 h. Indicated concentrations of insulin or ISM1 were added at indicated time points. Cells were treated with a mixture of 500 μM 2-deoxy-D-glucose and 1.71 μCimL^−1 2-Deoxy-D-[1,2-3H (N)]-glucose for another 10 min followed by three washes using ice cold KRH buffer containing 200 mM glucose. The passive glucose uptake in the presence of 50 uM CytoB was less than 12% of the total glucose uptake. Cells were solubilized in 1% SDS and radioactivity was measured by liquid scintillation counting.

primary mouse adipocytes = assay: 2-deoxy-3H-glucose uptake in primary mouse adipocytes; assay type: cell-based; details: 1 h
Description: as §1, §2

[1] = test system: differentiated 3T3-L1 adipocytes; assay: 2-deoxy-3H-glucose uptake in differentiated 3T3-L1 adipocytes; assay type: cell-based; details: 1 h
Description: as §2

GLUT4 = GLUT4 translocation to the plasma membrane in primary adipocytes (immunostaining, fractionation); assay type: cell-based, mouse; details: 100 nM
Description: Biochemical analyses. Plasma insulin levels were measured using the Ultra-Sensitive Mouse Insulin ELISA kit (Crystal Chem Inc #90080). Plasma triglycerides were measured with Infinity triglyceride measurement kit (Thermo #TR22421) and tissue triglycerides were measured with a Triglyceride Colorimetric Assay Kit (Cayman #10010303). Lipolysis was measured in day 5 differentiated adipocytes after 4 hours of protein treatment using a glycerol release assay according to the protocol provided by the manufacturer (Abcam #ab133130). Plasma membrane protein extractions were performed according to the manufacturer's protocol (Abcam #ab65400).
Immunocytochemistry. Primary mouse preadipocytes were seeded onto collagen-coated 22 mm×22 mm coverslips and differentiated using the method above. On day 8, differentiated adipocytes were washed with PBS and starved in 0.5% BSA in KRH buffer (50 mM HEPES, 136 mM NaCl, 1.25 mM MgSO4, 1.25 mM CaCl2, 4.7 mM KCl, pH 7.4) for 3.5 h. Cells were treated with insulin or ISM1 for 30 min, followed by three washes with cold PBS. Cells were fixed with 4% PFA in PBS for 15 min at room temperature. After blocking with 2% BSA, 5% goat serum, 0.2% Triton-X in PBS for 1 hr, cells were incubated with diluted primary antibody at 4° C. overnight. The next day, cells were washed and incubated with secondary antibody on ice for 1 hr. Cells were imaged using confocal microscope (Leica TCS SP8). Hoechst (#33342, thermo fisher) was used as counterstain.

pAKT^S473 = assay: pAKT S473 signaling in 3T3-F442A cells (phosphokinase array, western blot); assay type: cell-based; details: increasing doses; 5 min
Description: (§3) Western blots and molecular analyses. For western blotting, homogenized tissues or whole-cell lysates, samples were lysed in RIPA buffer containing protease inhibitor cocktail (Roche) and phosphatase inhibitor cocktail (Roche). Cell lysates were centrifuged at 14,000×g for 15 min and supernatants were prepared in 4×LDS Sample Buffer (Invitrogen) and separated by SDS-PAGE and transferred to Immobilon 0.45 μm membranes (Millipore). For Western blotting of plasma samples, 1 μl of plasma was prepared in 2× sample buffer (Invitrogen) with reducing agent, boiled, and analyzed using Western blot against indicated antibody. Protein kinase array (R&D systems ARY003B) was performed according to the manufacturers' description. All antibodies used in this paper are described in STAR methods.

[2] = test system: pAKT^T308, S6^S235/S236, PRAS40^Thr246, ERK1/2, PKA, PDK1, GSK3β; assay: Time-course western blot of intracellular signaling pathways in 3T3-F442A cells; assay type: cell-based; details: 100 nM; time course
Description: as §3

[3] = test system: IGF-I-Receptor β Tyr1135/1136 or Insulin receptor Tyr1150/1151; assay: Western blot of phosphorylated insulin and IGF receptors in 3T3-F442A cells; assay type: cell-based; details: 100 nM; 2 minutes
Description: as §3

pTyr = assay: Western blot of pTyr levels; assay type: cell-based; details: 100 nM; 2 minutes
Description: as §3

AML12 hepatocytes = assay: Lipogenesis assay (3H-acetate incorporation into lipids) in AML12 hepatocytes; assay type: cell-based, mouse; details: 50 nM insulin; 24 h
Description: Lipogenesis Assay. Primary hepatocytes or AML12 hepatocytes were washed twice with warm PBS and starved in serum-free DMEM overnight. Indicated concentrations of insulin with or without ISM1 were added at the same time. After 24 h, a mixture of 10 μM cold acetate and 2 μCi [3H]-Acetate (#NET003H005MC, PerkinElmer) was added to each well and cells were incubated for another 4 hr. Cells were washed with PBS twice and lysed using 0.1 N hydrogen chloride. Lipids were extracted by 2:1 chloroform-methanol (v/v). After centrifugation at 3000×g for 10 min, the lower phase was transferred to scintillation vials and radioactivity was measured by liquid scintillation counting.

SREBP1c, FAS, ACC = assay: Lipogenic protein and gene expression in AML12 hepatocytes; assay type: cell-based, mouse; details: 50 nM insulin, with or without ISM1; 24 h
Description: (§4) Gene expression analysis. Total RNA from cultured cells or tissues was isolated using TRIzol (Thermo Fischer Scientific) and Rneasy mini kits (QIAGEN). RNA was reverse transcribed using the ABI high capacity cDNA synthesis kit. For qRT-PCR analysis, cDNA, primers and SYBR-green fluorescent dye (ABI) were used. Relative mRNA expression was determined by normalization with Cyclophilin levels using the ΔΔCt method.
as §3

srebp1c = assay: Lipogenic gene and SREBP-1c protein expression in primary adipocytes; assay type: cell-based, mouse; details: primary adipocytes
Description: as §4, §3

NAFLD mice = details: daily injections at 30 mg/kg; after 14 days; cited from earlier work

Compound | concentration from which glucose uptake is increased (human SGBS adipocytes) | glucose uptake induction compared with ISM1 (primary mouse adipocytes) | induction of glucose uptake [1] | GLUT4 in plasma membrane fraction (biochemical fractionation) (GLUT4; 4 h) | GLUT4 at cell surface (immunostaining, confocal microscopy) (GLUT4; compared with control cells) | dose at which dose-dependent increase in pAKT^S473 phosphorylation starts (pAKT^S473) | pAKT^T308 phosphorylation [2] | IGF-R/IR phosphorylation [3] | tyrosine phosphorylation of proteins (pTyr) | de novo lipogenesis (AML12 hepatocytes) | SREBP1c cleavage, FAS and ACC protein expression (SREBP1c, FAS, ACC) | srebp1c expression under basal conditions (srebp1c) | hepatic steatosis (previously shown) (NAFLD mice)
insulin [reference compound] | 20 nM | higher glucose induction than ISM1 | ~40 fold | translocation of GLUT4 to the plasma membrane | higher levels of GLUT4 at cell surface | 10 nM | phosphorylation at pAKT^T308 at all time points | induced IGF-R/IR phosphorylation | induces phosphorylation of its receptors at larger molecular weights | significant induction of lipogenesis | increased expression of pre-SREBP1c as well as the cleaved SREBP1, and increased protein expression of FAS and ACC | induces srebp1c expression | –
CC(C)c1onc(-c2c(Cl)cccc2Cl)c1COc1ccc(/C=C/c2cccc(C(=O)O)c2)c(Cl)c1 [GW4064] | – | – | – | – | – | – | – | – | – | – | – | – | significantly reduce hepatic steatosis

From patent publication US20240342244A1, “Isthmin Protein Therapeutics for the Treatment of Non-Alcoholic Fatty Liver Disease” (The Board of Trustees of the Leland Stanford Junior …, priority 2021, published 2024)
